# According to patent publication US20210220368A1, “COMPOSITIONS COMPRISING TIMOLOL AND THEIR USE IN THE TREATMENT OF ROSACEA BY TOPICAL ADMINISTRATION” (Almirall, S.A., priority 2016, published 2021):
# How the values were obtained:
# [1] = test system: capsaicin-induced vasodilation; test: Vasodilation (erythema) induced by topical capsaicin in the ear of CD1 mice; format: in vivo, CD-1 mice; details: timolol 1%, brimonidine 0.33%, oxymetazoline 0.88% solutions, topical to the ear before capsaicin; peak erythema 45 min after capsaicin, Mexameter
# Description: Evaluation of the Effect of Topical Timolol, Brimonidine and Oxymetazoline in Vasodilation Induced by Topical Application of Capsaicin in the Ear of CD1 Mice
# Neurogenic skin inflammation was induced by capsaicin (Alacapsin 0.075% cream) on the ear of CD-1 mice. Capsaicin induces the release of neuropeptides most of which have vasodilatory properties. In this model vasodilation is evaluated with a narrowband spectrophotometer probe (Mexameter) that measures peak absorption of haemoglobin. The quantity of light absorbed by the skin is calculated as Mexameter® arbitrary units, and this measure of erythema can be considered a surrogate of vasodilation. […] Treatment effects are reported at this maximal induction of erythema.
# Timolol 1%, brimonidine 0.33% and oxymetazoline 0.88% solutions were applied topically to the mouse ear before capsaicin induction.
# Results described represent peak erythema of four groups of animals and are reported as mexameter arbitrary units. Each group included 6-12 animals. Numbers above the bars indicate the percentage inhibition of the corresponding group vs the capsaicin control group.
# TPA-induced ear oedema [2] = test: TPA-induced ear oedema model in Balb/c mice; format: in vivo; details: timolol 1%, brimonidine 0.2% in acetone, topical, 30 min before and 15 min after TPA; ear weight at T+6 h; p<0.005
# Description: Evaluation of the Anti-Oedema Effect of Timolol and Brimonidine after Two Topical Applications in the TPA-Induced Ear Oedema Model in Balb/c Mice.
# The oedema is induced by means of a single application to the right ear of the mouse of 20 μl of a solution of TPA (phorbol 12-myristate 13-acetate) in acetone at 0.01%. The test compounds are diluted in acetone and applied 30 minutes before and 15 minutes after TPA. The weight of the mouse ears is measured at T+6 h and the weight of the left ear is subtracted from the one of the right ear.
# Timolol was applied at a concentration of 1% before and after TPA application. The alpha agonist, brimonidine 0.2% was also tested for comparison.
# Each group included 12 animals. Numbers above the bars indicate the percentage inhibition of the corresponding group of treated animals vs the control group.
# [3] = test system: erythematotelangiectatic rosacea; details: topical timolol, human subjects with erythematotelangiectatic rosacea; Jaque et al., Rev. Chilena Dermatol 2012; cited from earlier work
# TPA-induced ear oedema [4] = details: topical brimonidine 0.2%, mice; Piwnica et al., J. Dermatol. Sci. 2014; cited from earlier work
SMILES,percentage inhibition of ear vasodilation (erythema) vs capsaicin control group [1] [%],inhibition of ear oedema vs control group (TPA-induced ear oedema [2]),clinical benefit [3],inhibition of TPA-induced ear oedema (TPA-induced ear oedema [4]) [%]
Cc1cc(C(C)(C)C)c(O)c(C)c1CC1=NCCN1 [oxymetazoline],60,,,
"CC(C)(C)NC[C@H](O)COc1nsnc1N1CCOCC1 [timolol, (S)-1-(tert-butylamino)-3-[(4-morpholin-4-yl-1,2,5-thiadiazol-3-yl)oxy]propan-2-ol]",44,around 50%,no clinical benefit,
Brc1c(NC2=NCCN2)ccc2nccnc12 [brimonidine],56,around 50%,,50
